Assay results: ChEMBL document CHEMBL1201862, “PubChem BioAssay data set” (2004)
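Grown in 96-well plates, cells were treated for 48 hours with each compound at five concentrations. Insufficient inhibition: endpoint recorded as highest concentration tested. Abbreviation: GI50, concentration required for 50% inhibition of growth.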 The source made the active and inactive calls. Rule as the data show it: active = GI50 up to about 1.1 µM and inactive = higher.

Tests used:
Experiment in all cases: DTP human tumour cell line panel, 48 h
[1] = system: 786-0
[2] = system: A498
[3] = system: A549
[4] = system: ACHN
[5] = system: CAKI-1
[6] = system: CCRF-CEM
[7] = system: COLO 205
[8] = system: DLD-1
[9] = system: DMS-114
[10] = system: DMS-273
[11] = system: EKVX
[12] = system: HCC 2998
[13] = system: HCT-116
[14] = system: HCT-15
[15] = system: HOP-92
[16] = system: IGROV-1
[17] = system: K562
[18] = system: KM-20L2
[19] = system: KM12
[20] = system: LOX IMVI
[21] = system: LXFL 529
[22] = system: M14
[23] = system: MOLT-4
[24] = system: Malme-3M
[25] = system: NCI-H226
[26] = system: NCI-H23
[27] = system: NCI-H460
[28] = system: NCI-H522
[29] = system: OVCAR-3
[30] = system: OVCAR-4
[31] = system: OVCAR-5
[32] = system: OVCAR-8
[33] = system: SF-268
[34] = system: SF-295
[35] = system: SF-539
[36] = system: SK-MEL-28
[37] = system: SK-MEL-2
[38] = system: SK-MEL-5
[39] = system: SK-OV-3
[40] = system: SN12C
[41] = system: SNB-19
[42] = system: SNB-75
[43] = system: SNB-78
[44] = system: SR
[45] = system: SW-620
[46] = system: TK-10
[47] = system: U-251
[48] = system: UACC-257
[49] = system: UACC-62
[50] = system: UO-31
[51] = system: XF498
[52] = system: HL-60
[53] = system: HOP-18
[54] = system: HOP-62
[55] = system: HT-29
[56] = system: M19-MEL
[57] = system: MCF7
[58] = system: NCI/ADR-RES
[59] = system: RPMI-8226
[60] = system: RXF 393

CCOC(=O)C1Cc2[nH]c3ccccc3c2C(C)C1C (centres undefined)
GI50 [1]: 14.6 µM (inactive) | GI50 [2]: 17.4 µM (inactive) | GI50 [3]: 14.1 µM (inactive) | GI50 [4]: 13.7 µM (inactive) | GI50 [5]: 16.4 µM (inactive) | GI50 [6]: 19.7 µM (inactive) | GI50 [7]: 17.3 µM (inactive) | GI50 [8]: 15.8 µM (inactive) | GI50 [9]: 22.3 µM (inactive) | GI50 [10]: 15.1 µM (inactive) | GI50 [11]: 10.8 µM (inactive) | GI50 [12]: > 10 µM (inactive) | GI50 [13]: 16.3 µM (inactive) | GI50 [14]: 16.7 µM | GI50 [15]: 15.7 µM (inactive) | GI50 [16]: 15.3 µM (inactive) | GI50 [17]: 23.5 µM (inactive) | GI50 [18]: 16.8 µM (inactive) | GI50 [19]: 17 µM (inactive) | GI50 [20]: 14.8 µM (inactive) | GI50 [21]: 19.9 µM (inactive) | GI50 [22]: 16.7 µM (inactive) | GI50 [23]: 10.8 µM (inactive) | GI50 [24]: 16.9 µM (inactive) | GI50 [25]: 11.6 µM (inactive) | GI50 [26]: 13.5 µM (inactive) | GI50 [27]: 17.3 µM (inactive) | GI50 [28]: 12.2 µM (inactive) | GI50 [29]: 15.6 µM (inactive) | GI50 [30]: 16 µM (inactive) | GI50 [31]: 17 µM (inactive) | GI50 [32]: 3.55 µM (inactive) | GI50 [33]: 19.5 µM (inactive) | GI50 [34]: 19.4 µM (inactive) | GI50 [35]: 16.5 µM (inactive) | GI50 [36]: 17.1 µM (inactive) | GI50 [37]: 20.2 µM (inactive) | GI50 [38]: 14 µM (inactive) | GI50 [39]: 18.9 µM (inactive) | GI50 [40]: 18.4 µM (inactive) | GI50 [41]: 17.7 µM (inactive) | GI50 [42]: 8.09 µM (inactive) | GI50 [43]: 19.4 µM (inactive) | GI50 [44]: 16.6 µM (inactive) | GI50 [45]: 17.3 µM (inactive) | GI50 [46]: 30 µM (inactive) | GI50 [47]: 18.5 µM (inactive) | GI50 [48]: 17.6 µM (inactive) | GI50 [49]: 10.8 µM (inactive) | GI50 [50]: 12.8 µM (inactive) | GI50 [51]: 16.7 µM (inactive)

NC(=O)NN=C(CS)CS
GI50 [2]: 14.9 µM (inactive) | GI50 [3]: 22 µM (inactive) | GI50 [5]: 23.6 µM (inactive) | GI50 [6]: 36.9 µM (inactive) | GI50 [7]: 23.1 µM (inactive) | GI50 [8]: 34 µM (inactive) | GI50 [9]: 30.5 µM (inactive) | GI50 [10]: 20 µM (inactive) | GI50 [11]: 18.8 µM (inactive) | GI50 [12]: 31 µM (inactive) | GI50 [13]: 38.5 µM (inactive) | GI50 [14]: 22.8 µM | GI50 [52]: 0.41 µM (active) | GI50 [53]: 26.7 µM (inactive) | GI50 [54]: 0.492 µM (active) | GI50 [15]: 21.9 µM (inactive) | GI50 [55]: 20.7 µM (inactive) | GI50 [16]: 39.1 µM (inactive) | GI50 [17]: 51.1 µM (inactive) | GI50 [18]: 19.8 µM (inactive) | GI50 [19]: 33.2 µM (inactive) | GI50 [20]: 15.7 µM (inactive) | GI50 [56]: 17.5 µM (inactive) | GI50 [57]: 24 µM (inactive) | GI50 [23]: 23.7 µM (inactive) | GI50 [24]: 19.7 µM (inactive) | GI50 [26]: 22.7 µM (inactive) | GI50 [27]: 23.7 µM (inactive) | GI50 [28]: 22.6 µM (inactive) | GI50 [58]: 25.6 µM (inactive) | GI50 [29]: 23.3 µM (inactive) | GI50 [30]: 25.4 µM (inactive) | GI50 [31]: 24.1 µM (inactive) | GI50 [32]: 27.5 µM (inactive) | GI50 [59]: 46.1 µM (inactive) | GI50 [60]: 40.2 µM (inactive) | GI50 [33]: 34.8 µM (inactive) | GI50 [34]: 23.7 µM (inactive) | GI50 [35]: 21.8 µM (inactive) | GI50 [36]: 30.6 µM (inactive) | GI50 [37]: 20.8 µM (inactive) | GI50 [38]: 17 µM (inactive) | GI50 [39]: 89.3 µM (inactive) | GI50 [40]: 24.2 µM (inactive) | GI50 [41]: 23.1 µM (inactive) | GI50 [42]: 33 µM (inactive) | GI50 [43]: 41 µM (inactive) | GI50 [45]: 28.4 µM (inactive) | GI50 [47]: 21.6 µM (inactive) | GI50 [48]: 19.5 µM (inactive) | GI50 [49]: 25.3 µM (inactive) | GI50 [50]: 18.8 µM (inactive) | GI50 [51]: < 0.01 µM (active)
